This test relates to human umbilical vein endothelial cells (HUVEC). Kind of test: Copper-induced IL-8 release from HUVEC (IL-8 ELISA). The format is cell-based.

Take `NCCNCCNCCN` [trientine, N,N′-bis(2-aminoethyl)-1,2-ethanediamine]: the “IL-8 secretion caused by CuCl2” value (50 μM CuCl2 + 50, 100, 150 or 250 μM Syprine trientine hydrochloride, 24 hours, serum-free medium) is “significantly inhibited copper-induced endothelial cell IL-8 secretion”.

For the compound `[Cl][Cu][Cl]` [CuCl2], the “IL-8 secretion as compared to controls incubated with water” value (50 μM CuCl2, 24 hours) is listed as over 2 fold.

Values taken from US20050002876A1, “Oral care methods and products” (priority 2003, published 2005).
